Assay results: patent publication US20110313034A1, “NEUROACTIVE PLANT EXTRACT FROM HYPERICUM POLYANTHEMUM” (UNIVERSIDADE FEDERAL DO RIO GRANDE DO SUL, priority 2009, published 2011)

Legend:
[1] = molecular target: T1, monoamine oxidase A (Rattus norvegicus, UniProt P21396); conditions: mitochondria from rat brain; cited from earlier work
T1 construct: in preparations of mitochondria from rat brain; from tissue; host or cells: rat brain mitochondria
T1 sequence (P21396 1-526): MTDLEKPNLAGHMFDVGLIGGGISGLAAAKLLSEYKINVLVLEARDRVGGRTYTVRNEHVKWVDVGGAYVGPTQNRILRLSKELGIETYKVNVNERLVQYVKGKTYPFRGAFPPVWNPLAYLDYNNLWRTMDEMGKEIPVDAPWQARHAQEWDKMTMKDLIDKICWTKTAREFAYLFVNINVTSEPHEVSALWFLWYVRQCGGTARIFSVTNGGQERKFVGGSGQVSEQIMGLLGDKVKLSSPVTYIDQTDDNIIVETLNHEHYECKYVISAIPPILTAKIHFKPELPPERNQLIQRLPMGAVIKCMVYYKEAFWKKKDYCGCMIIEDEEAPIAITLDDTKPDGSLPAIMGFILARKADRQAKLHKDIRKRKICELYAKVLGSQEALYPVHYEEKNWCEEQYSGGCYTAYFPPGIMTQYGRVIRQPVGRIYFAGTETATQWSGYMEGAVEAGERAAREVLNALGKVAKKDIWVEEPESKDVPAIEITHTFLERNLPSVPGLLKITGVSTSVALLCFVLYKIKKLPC

[2] = molecular target: T2, synaptosomal reuptake of dopamine ([3H]-DA) (Rattus norvegicus, UniProt P23977); conditions: in vitro; cited from earlier work
T2 sequence (P23977 whole entry): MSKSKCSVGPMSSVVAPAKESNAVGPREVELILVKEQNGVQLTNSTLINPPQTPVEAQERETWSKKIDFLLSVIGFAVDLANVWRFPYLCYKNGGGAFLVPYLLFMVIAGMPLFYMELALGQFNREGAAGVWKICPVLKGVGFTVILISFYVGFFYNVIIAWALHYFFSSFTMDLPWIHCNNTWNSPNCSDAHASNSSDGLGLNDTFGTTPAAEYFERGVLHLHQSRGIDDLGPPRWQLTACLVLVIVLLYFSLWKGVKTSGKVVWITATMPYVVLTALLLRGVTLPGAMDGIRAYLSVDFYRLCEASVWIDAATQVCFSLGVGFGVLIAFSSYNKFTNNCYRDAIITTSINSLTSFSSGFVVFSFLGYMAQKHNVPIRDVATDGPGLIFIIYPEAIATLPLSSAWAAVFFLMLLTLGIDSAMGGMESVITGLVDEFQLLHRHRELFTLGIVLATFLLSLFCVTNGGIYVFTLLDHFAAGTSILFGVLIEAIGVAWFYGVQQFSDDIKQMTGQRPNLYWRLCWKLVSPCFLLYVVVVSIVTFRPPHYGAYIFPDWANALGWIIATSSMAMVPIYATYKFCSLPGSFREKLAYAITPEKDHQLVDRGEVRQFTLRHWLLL

[3] = molecular target: T3, synaptosomal reuptake of noradrenaline ([3H]-NA) (Rattus norvegicus, UniProt Q9WTR4); conditions: in vitro; cited from earlier work
T3 sequence (Q9WTR4 1-597): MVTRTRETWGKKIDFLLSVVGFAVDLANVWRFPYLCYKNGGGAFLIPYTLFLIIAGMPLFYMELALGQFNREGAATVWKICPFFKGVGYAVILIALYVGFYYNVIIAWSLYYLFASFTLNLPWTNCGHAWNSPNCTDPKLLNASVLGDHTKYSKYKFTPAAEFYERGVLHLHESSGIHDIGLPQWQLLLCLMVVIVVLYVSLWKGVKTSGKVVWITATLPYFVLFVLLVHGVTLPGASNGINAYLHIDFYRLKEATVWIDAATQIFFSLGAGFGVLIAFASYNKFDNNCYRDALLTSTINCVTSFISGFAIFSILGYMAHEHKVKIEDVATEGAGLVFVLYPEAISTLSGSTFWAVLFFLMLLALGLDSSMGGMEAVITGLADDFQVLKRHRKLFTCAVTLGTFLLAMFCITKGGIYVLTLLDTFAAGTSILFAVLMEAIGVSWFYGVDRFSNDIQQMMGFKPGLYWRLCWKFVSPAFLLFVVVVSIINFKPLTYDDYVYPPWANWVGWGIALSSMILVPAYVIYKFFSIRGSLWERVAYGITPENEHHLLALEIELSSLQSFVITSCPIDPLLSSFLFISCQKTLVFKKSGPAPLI

[4] = molecular target: T4, synaptosomal reuptake of serotonin ([3H]-5HT) (Rattus norvegicus, UniProt P31652); conditions: in vitro; cited from earlier work
T4 sequence (P31652 whole entry): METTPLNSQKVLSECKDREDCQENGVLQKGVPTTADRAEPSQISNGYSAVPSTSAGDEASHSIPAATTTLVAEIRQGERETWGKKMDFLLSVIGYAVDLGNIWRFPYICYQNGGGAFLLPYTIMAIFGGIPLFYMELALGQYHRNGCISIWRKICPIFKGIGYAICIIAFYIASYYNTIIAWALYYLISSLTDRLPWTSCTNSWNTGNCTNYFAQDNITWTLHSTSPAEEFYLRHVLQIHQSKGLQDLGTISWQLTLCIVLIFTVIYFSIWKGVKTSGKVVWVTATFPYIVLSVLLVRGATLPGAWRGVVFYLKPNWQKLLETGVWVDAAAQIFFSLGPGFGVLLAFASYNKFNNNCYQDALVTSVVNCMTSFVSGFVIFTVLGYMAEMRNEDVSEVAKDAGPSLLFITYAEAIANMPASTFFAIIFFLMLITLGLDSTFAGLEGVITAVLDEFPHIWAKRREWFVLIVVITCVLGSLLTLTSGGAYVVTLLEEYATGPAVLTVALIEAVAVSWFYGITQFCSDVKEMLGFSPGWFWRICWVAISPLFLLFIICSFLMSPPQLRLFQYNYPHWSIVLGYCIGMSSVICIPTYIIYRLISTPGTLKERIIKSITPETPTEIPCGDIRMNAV

[5] = tested on: synatosomal reuptake of GABA; conditions: in vitro; cited from earlier work
[6] = tested on: synatosomal reuptake of glutamate; conditions: in vitro; cited from earlier work
[7] = molecular target: T5, sites of uptake of DA (Rattus norvegicus, UniProt P23977); test: binding of [3H]-mazindol to sites of uptake of DA, striatum membranes; conditions: 3×10^−7-3×10^−11 g/mL
T5 construct: in synaptosomes prepared from striatum, hypothalamus and frontal cortex, respectively; from tissue; host or cells: striatum (synaptosomes; membranes)
T5 sequence (P23977 whole entry): as the sequence (P23977 whole entry) above

[8] = molecular target: T6, sites of uptake of NA (Rattus norvegicus, UniProt Q9WTR4); test: binding of [3H]-nisoxetina to sites of uptake of NA, hypothalamus membranes; conditions: 3×10^−7-3×10^−11 g/mL
T6 construct: in synaptosomes prepared from striatum, hypothalamus and frontal cortex, respectively; from tissue; host or cells: hypothalamus (synaptosomes; membranes)
T6 sequence (Q9WTR4 1-597): as the sequence (Q9WTR4 1-597) above

[9] = molecular target: T7, sites of uptake of 5-HT (Rattus norvegicus, UniProt P31652); test: binding of [3H]-citalopram to sites of uptake of 5-HT, frontal cortex membranes; conditions: 3×10^−7-3×10^−11 g/mL
T7 construct: in synaptosomes prepared from striatum, hypothalamus and frontal cortex, respectively; from tissue; host or cells: frontal cortex (synaptosomes; membranes)
T7 sequence (P31652 whole entry): as the sequence (P31652 whole entry) above

[10] = tested on: G proteins; test: direct incubation of membranes with HP4, [35S]GTPγS binding; type: biochemical, rats
Procedure: To evaluate the effect of POL on DA, NA, 5-HT and opioids receptors, we used the technique of binding of [^35S] GTPγS stimulated by DA, NA, 5-HT and DAMGO in membranes prepared from striatum, hypothalamus, frontal cortex and thalamus of rats, respectively. […] GTPγS stimulated by DA, NA and 5-HT, while 5 days of treatment with 90 mg/kg, decreases this binding. […] This time profile of action coincides with the modern theories that the antidepressant effect is related to neuroadaptation processes.
GTPγS to its site. […] These changes can occur through other regulatory mechanisms or are related to HP4 metabolites produced after administration in vivo of POL. […] GTPγS stimulated by agonists after different treatment regimens with saline and POL.

[11] = tested on: immobility time of mice; test: Porsolt's forced swimming test (FST) in mice; type: in vivo, CF1 mice; conditions: 90 mg/kg, p.o.
Procedure: The species H. caprifoliatum, H. carinatum, H. connatum, H. myrianthum, H. piriai, H. polyanthemum and H. cordatum, and three isolated benzopyrans of H. polyanthemum (HP1, HP2, and HP3) were tested for inhibitory activity of monoamine oxidase A and B in preparations of mitochondria from rat brain.
Results are expressed as mean±SEM. * Significant difference compared to the SAL group (water+polysorbate 80, 5%, 1 ml/kg, p.o.) # significant difference compared to POL270 (ANOVA F(7,79)=5.9, p<0.001).
Results are expressed as mean±SEM. *Significant difference compared to the SAL group (water+polysorbate 80, 5%, 1 ml/kg, p.o.) (ANOVA, F(2,29)=15.5, p<0.001).
POL was active in rats (270 mg/kg/day, p.o.) and mice (180, 270 and 360 mg/kg, p.o.). The action of POL in the FST was blocked by administration of SCH 23390 (dopamine D1 antagonist) […], i.p., and sulpiride (D2 dopamine antagonist) 50 mg/kg, ip, (FIG. 1). HP4 was active at a dose of 90 mg/kg, p.o. in mice (FIG. 2).

[12] = molecular target: T2, synaptosomal reuptake of dopamine ([3H]-DA); test: synaptosomal reuptake of dopamine ([3H]-DA), striatum synaptosomes; type: biochemical; set-up: in synaptosomes prepared from striatum, hypothalamus and frontal cortex, respectively; from tissue; host or cells: striatum (synaptosomes; membranes)
From the text: (§1) The effect of HP4 (3×10^−4-3×10^−11 g/mL) on synaptosomal reuptake of dopamine ([^3H]-DA), noradrenaline ([^3H]-NA) and serotonin ([^3H]-5HT) in synaptosomes prepared from striatum, hypothalamus and frontal cortex, respectively. […] This profile differs from other antidepressants, which inhibit the reuptake of monoamines through competition for binding site on the transporter.

[13] = molecular target: T3, synaptosomal reuptake of noradrenaline ([3H]-NA); test: synaptosomal reuptake of noradrenaline ([3H]-NA), hypothalamus synaptosomes; type: biochemical; set-up: in synaptosomes prepared from striatum, hypothalamus and frontal cortex, respectively; from tissue; host or cells: hypothalamus (synaptosomes; membranes); conditions: synaptosomes from hypothalamus; HP4 3×10^−4-3×10^−11 g/mL; read-out: IC50, synaptosomal uptake of NA
From the text: as §1

[14] = molecular target: T4, synaptosomal reuptake of serotonin ([3H]-5HT); test: synaptosomal reuptake of serotonin ([3H]-5HT), frontal cortex synaptosomes; type: biochemical; set-up: in synaptosomes prepared from striatum, hypothalamus and frontal cortex, respectively; from tissue; host or cells: frontal cortex (synaptosomes; membranes); conditions: synaptosomes from frontal cortex; HP4 3×10^−4-3×10^−11 g/mL; read-out: IC50, synaptosomal uptake of 5-HT
From the text: as §1

[15] = tested on: corticosterone; test: serum and cortical corticosterone in mice subjected to forced swimming (radioimmunoassay); type: in vivo; conditions: three days of treatment, POL 360 mg/kg p.o., imipramine 20 mg/kg, bupropion 30 mg/kg; for serum levels of corticosterone: forced swimming
Procedure: Data are presented as mean±SEM. *p<0.01 compared to respective group without swimming; #p<0.01 compared to SAL with swimming. Legend: (A) X axis—corticosterone levels (μg/100 mL plasma); Blank values: no swimming; values hatch: with swim, (B) X axis—cortical Corticosterone (pg/100 mg tissue).
We evaluated the action of POL (360 mg/kg, p.o.) on serum and cortical levels of corticosterone in mice subjected or not to stress caused by forced swimming. The concentration of corticosterone present in the samples was measured by radioimmunoassay.

## COc1cc2c(c(O)c1C(=O)C(C)C)C=CC(C)(C)O2 [HP3, 5-hydroxy-6-isobutyryl-7-methoxy-2,2-dimethyl-benzopyran]
[1]
  IC50: 22200 nM

## hyperforin
[2]
  inhibition of synaptosomal reuptake of dopamine: inhibit
[3]
  inhibition of synaptosomal reuptake of norepinephrine: inhibit
[4]
  inhibition of synaptosomal reuptake of serotonin: inhibit
[5]
  inhibition of synaptosomal reuptake of GABA: inhibits
[6]
  inhibition of synaptosomal reuptake of glutamate: inhibits

## CC(C)C(=O)C1=C(O)C(C)(C)C(O)=C(Cc2c(O)c3c(c(C(=O)C(C)C)c2O)OC(C)(C)C=C3)C1=O [HP4, uliginosin B]
[7]
  effect on binding of [3H]-mazindol to sites of uptake of DA: did not affect the binding
[8]
  effect on binding of [3H]-nisoxetina to sites of uptake of NA: did not affect the binding
[9]
  effect on binding of [3H]-citalopram to sites of uptake of 5-HT: did not affect the binding
[10]
  effect on binding of [35S]GTPγS to its site: did not alter the binding
[11]
  activity in forced swimming test: active
[12]; in vitro synaptosomal reuptake
  IC50 for dopamine relative to IC50 for NA and 5-HT (reuptake selectivity): almost three times smaller
[12]; synaptosomes from striatum, HP4 3×10^−4-3×10^−11 g/mL, read-out: IC50, synaptosomal uptake of DA
  IC50: 90 ± 38 nM
[13]
  IC50: 280 ± 48 nM
[14]
  IC50: 252 ± 13 nM

## CN(C)CCCN1c2ccccc2CCc2ccccc21 [imipramine]
[15]
  level of cortical corticosterone raised by forced swimming: alters both serum and cortical levels
  serum levels of corticosterone: alters both serum and cortical levels

## CC(NC(C)(C)C)C(=O)c1cccc(Cl)c1 (stereo not shown) [bupropion]
[15]
  level of cortical corticosterone raised by forced swimming: alters both serum and cortical levels
  serum levels of corticosterone: alters both serum and cortical levels
